Laboratory results taken from the supplement of paper PMC8741786.
Converted amounts (≈) assume the structure as drawn.

How the values were obtained:
[1] = test system: Neisseria subflava/flavescens/perflava; test: minimum inhibitory concentration (ETEST); settings: population: general population, antibiotic use in previous 6 months: No
Description: (§1)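 Oropharyngeal Neisseria isolates from MSM and employees in Belgium were identified to species by MALDI-TOF MS. MICs of azithromycin, ceftriaxone and ciprofloxacin were determined by ETEST on GC agar after 24 h at 36.5 °C and 5-7% CO2, in mg/L. Values beyond the strip range are reported as >256 (azithromycin) or <0.016 (ceftriaxone); isolates that did not grow are NA.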

Neisseria mucosa/macacae = test: minimum inhibitory concentration (ETEST)
Description: as §1

SMILES: O=C(O)c1cn(C2CC2)c2cc(N3CCNCC3)c(F)cc2c1=O [ciprofloxacin]
- minimum inhibitory concentration ([1]; isolate id (sample isolate): Co000773_1): 0.38 µg/mL (≈ 1.15 µM)
- minimum inhibitory concentration ([1]; isolate id (sample isolate): Co000773_2): 0.38 µg/mL (≈ 1.15 µM)
- minimum inhibitory concentration ([1]; isolate id (sample isolate): Co000774_2): 0.047 µg/mL (≈ 0.142 µM)
- minimum inhibitory concentration ([1]; isolate id (sample isolate): Co000775_1): 1 µg/mL (≈ 3.02 µM)
- minimum inhibitory concentration ([1]; isolate id (sample isolate): Co000775_2): 0.016 µg/mL (≈ 0.0483 µM)
- minimum inhibitory concentration ([1]; isolate id (sample isolate): Co000775_3): 0.25 µg/mL (≈ 0.754 µM)
- minimum inhibitory concentration ([1]; isolate id (sample isolate): Co000776_2): 0.047 µg/mL (≈ 0.142 µM)
- minimum inhibitory concentration ([1]; isolate id (sample isolate): Co000776_3): 0.047 µg/mL (≈ 0.142 µM)
- minimum inhibitory concentration ([1]; isolate id (sample isolate): Co000777_1): 1 µg/mL (≈ 3.02 µM)
- minimum inhibitory concentration ([1]; isolate id (sample isolate): Co000777_2): 0.5 µg/mL (≈ 1.51 µM)
- minimum inhibitory concentration ([1]; isolate id (sample isolate): Co000777_4): 2 µg/mL (≈ 6.04 µM)
- minimum inhibitory concentration ([1]; isolate id (sample isolate): Co000778_1): 0.012 µg/mL (≈ 0.0362 µM)
- minimum inhibitory concentration ([1]; isolate id (sample isolate): Co000778_2): > 32 µg/mL
- minimum inhibitory concentration ([1]; isolate id (sample isolate): Co000778_3): 0.012 µg/mL (≈ 0.0362 µM)
- minimum inhibitory concentration ([1]; isolate id (sample isolate): Co000780_4): 0.75 µg/mL (≈ 2.26 µM)
- minimum inhibitory concentration ([1]; isolate id (sample isolate): Co000781_1): 0.5 µg/mL (≈ 1.51 µM)
- minimum inhibitory concentration ([1]; isolate id (sample isolate): Co000781_3): 2 µg/mL (≈ 6.04 µM)
- minimum inhibitory concentration ([1]; isolate id (sample isolate): Co000781_4): 0.75 µg/mL (≈ 2.26 µM)
- minimum inhibitory concentration ([1]; isolate id (sample isolate): Co000782_2): 0.016 µg/mL (≈ 0.0483 µM)
- minimum inhibitory concentration ([1]; isolate id (sample isolate): Co000782_3): 0.012 µg/mL (≈ 0.0362 µM)
- minimum inhibitory concentration ([1]; isolate id (sample isolate): Co000782_4): 0.023 µg/mL (≈ 0.0694 µM)
- minimum inhibitory concentration ([1]; isolate id (sample isolate): Co000783_1): 0.064 µg/mL (≈ 0.193 µM)
- minimum inhibitory concentration ([1]; isolate id (sample isolate): Co000783_2): 0.094 µg/mL (≈ 0.284 µM)
- minimum inhibitory concentration ([1]; isolate id (sample isolate): Co000783_5): 0.012 µg/mL (≈ 0.0362 µM)
- minimum inhibitory concentration ([1]; isolate id (sample isolate): Co000784_1): 0.023 µg/mL (≈ 0.0694 µM)
- minimum inhibitory concentration ([1]; isolate id (sample isolate): Co000784_2): 0.75 µg/mL (≈ 2.26 µM)
- minimum inhibitory concentration ([1]; isolate id (sample isolate): Co000784_5): 0.023 µg/mL (≈ 0.0694 µM)
- minimum inhibitory concentration ([1]; isolate id (sample isolate): Co000785_1): 0.016 µg/mL (≈ 0.0483 µM)
- minimum inhibitory concentration ([1]; isolate id (sample isolate): Co000785_2): 0.25 µg/mL (≈ 0.754 µM)
- minimum inhibitory concentration ([1]; isolate id (sample isolate): Co000785_3): 0.125 µg/mL (≈ 0.377 µM)
- minimum inhibitory concentration ([1]; isolate id (sample isolate): Co000785_4): 0.012 µg/mL (≈ 0.0362 µM)
- minimum inhibitory concentration ([1]; isolate id (sample isolate): Co000786_1): 0.047 µg/mL (≈ 0.142 µM)
- minimum inhibitory concentration ([1]; isolate id (sample isolate): Co000786_2): 0.016 µg/mL (≈ 0.0483 µM)
- minimum inhibitory concentration ([1]; isolate id (sample isolate): Co000787_1): > 32 µg/mL
- minimum inhibitory concentration ([1]; isolate id (sample isolate): Co000787_2): 0.023 µg/mL (≈ 0.0694 µM)
- minimum inhibitory concentration ([1]; isolate id (sample isolate): Co000787_4): 0.023 µg/mL (≈ 0.0694 µM)
- minimum inhibitory concentration ([1]; isolate id (sample isolate): Co000788_2): 0.25 µg/mL (≈ 0.754 µM)
- minimum inhibitory concentration ([1]; isolate id (sample isolate): Co000788_3): 0.016 µg/mL (≈ 0.0483 µM)
- minimum inhibitory concentration ([1]; isolate id (sample isolate): Co000788_5): 0.19 µg/mL (≈ 0.573 µM)
- minimum inhibitory concentration ([1]; isolate id (sample isolate): Co000789_1): 0.016 µg/mL (≈ 0.0483 µM)
- minimum inhibitory concentration ([1]; isolate id (sample isolate): Co000790_2): 0.006 µg/mL (≈ 0.0181 µM)
- minimum inhibitory concentration ([1]; isolate id (sample isolate): Co000790_4): 0.006 µg/mL (≈ 0.0181 µM)
- minimum inhibitory concentration (Neisseria mucosa/macacae; isolate id (sample isolate): 19041762_2, population: MSM, antibiotic use in previous 6 months: Yes): 0.016 µg/mL (≈ 0.0483 µM)
- minimum inhibitory concentration (Neisseria mucosa/macacae; isolate id (sample isolate): 19051904_1, population: MSM, antibiotic use in previous 6 months: Yes): 0.25 µg/mL (≈ 0.754 µM)
- minimum inhibitory concentration (Neisseria mucosa/macacae; isolate id (sample isolate): 19052394_2, population: MSM, antibiotic use in previous 6 months: Yes): 0.012 µg/mL (≈ 0.0362 µM)
- minimum inhibitory concentration (Neisseria mucosa/macacae; isolate id (sample isolate): 19062968_1, population: MSM, antibiotic use in previous 6 months: Yes): 6 µg/mL (≈ 18.1 µM)
- minimum inhibitory concentration (Neisseria mucosa/macacae; isolate id (sample isolate): 19081774_2, population: MSM, antibiotic use in previous 6 months: No): 0.016 µg/mL (≈ 0.0483 µM)
- minimum inhibitory concentration (Neisseria mucosa/macacae; isolate id (sample isolate): 19111422_4, population: MSM, antibiotic use in previous 6 months: No): 0.016 µg/mL (≈ 0.0483 µM)
- minimum inhibitory concentration (Neisseria mucosa/macacae; isolate id (sample isolate): 19111422_7, population: MSM, antibiotic use in previous 6 months: No): 0.016 µg/mL (≈ 0.0483 µM)
- minimum inhibitory concentration (Neisseria mucosa/macacae; isolate id (sample isolate): Co000770_5, population: general population, antibiotic use in previous 6 months: No): 0.023 µg/mL (≈ 0.0694 µM)
- minimum inhibitory concentration (Neisseria mucosa/macacae; isolate id (sample isolate): Co000771_4, population: general population, antibiotic use in previous 6 months: No): 0.016 µg/mL (≈ 0.0483 µM)
- minimum inhibitory concentration (Neisseria mucosa/macacae; isolate id (sample isolate): Co000772_3, population: general population, antibiotic use in previous 6 months: No): 0.006 µg/mL (≈ 0.0181 µM)
- minimum inhibitory concentration (Neisseria mucosa/macacae; isolate id (sample isolate): Co000773_3, population: general population, antibiotic use in previous 6 months: No): 0.006 µg/mL (≈ 0.0181 µM)
- minimum inhibitory concentration (Neisseria mucosa/macacae; isolate id (sample isolate): Co000779_1, population: general population, antibiotic use in previous 6 months: No): 0.032 µg/mL (≈ 0.0966 µM)
- minimum inhibitory concentration (Neisseria mucosa/macacae; isolate id (sample isolate): Co000783_3, population: general population, antibiotic use in previous 6 months: No): 0.012 µg/mL (≈ 0.0362 µM)
- minimum inhibitory concentration (Neisseria mucosa/macacae; isolate id (sample isolate): Co000783_6, population: general population, antibiotic use in previous 6 months: No): 0.023 µg/mL (≈ 0.0694 µM)
- minimum inhibitory concentration (Neisseria mucosa/macacae; isolate id (sample isolate): Co000787_3, population: general population, antibiotic use in previous 6 months: No): 0.064 µg/mL (≈ 0.193 µM)
- minimum inhibitory concentration (Neisseria mucosa/macacae; isolate id (sample isolate): Co000788_1, population: general population, antibiotic use in previous 6 months: No): 0.012 µg/mL (≈ 0.0362 µM)
- minimum inhibitory concentration (Neisseria mucosa/macacae; isolate id (sample isolate): Co000788_4, population: general population, antibiotic use in previous 6 months: No): 0.012 µg/mL (≈ 0.0362 µM)
